Data set [1] has as its system liver cells. Briefly: Liver cell proliferation under carbon tetrachloride treatment (2H2O labeling). The class given is in vivo, Swiss Webster mice. The note with it: IP injections over 7 days, increasing doses, concurrent 2H2O. The procedure:
FIG. 13 depicts in vivo dose response of liver cell proliferation over 7 days of carbon tetrachloride treatment. Swiss Webster mice were given IP injections of CCl4 over 7 days concurrent with ^2H2O.
Mice are given CCl4 i.p. twice weekly for up to 4 weeks, and continuous oral ^2H2O is given throughout, following an i.p. bolus of ^2H2O. Livers are perfused in situ with saline to minimize blood cell contamination. Livers are homogenized and DNA from 5-mg aliquots is analyzed for ^2H incorporation by gas chromatography/mass spectrometry analysis, after isolation and hydrolysis of genomic DNA, as described in Example 1, supra. Livers are collected 4 days after the last dose of CCl4. The cell proliferation rate can then be calculated from the enrichment in the DNA of the target cell compared to measured body water enrichment or to a reference cell type which is fully replaced.
DNA is extracted from a liver sample, either by biopsy or liver homogenate. Liver cell proliferation can be determined on a sample a small as 2 mg (400,000 cells). The use of total liver, rather than isolated hepatocytes, allows for efficient scale-up and the sample processing can be adapted to a 96-well automated system for extremely high throughput. Total liver cell proliferation will be compared to the measured proliferation of isolated hepatocytes, and non-parenchymal cells for validation. […]

The subject of data set [2] is liver collagen synthesis. Briefly: Liver collagen synthesis in CCl4-induced liver fibrosis. To be noted: fibrotic agent alone.

Each structure is given as a SMILES string.

Take `ClC(Cl)(Cl)Cl` [CCl4, carbon tetrachloride]: the “total liver cell turnover (proliferation of liver cells)” value in data set [1] is on record as “increased proliferation of liver cells”. In data set [2], the “collagen synthesis in mouse liver” value was “increases collagen synthesis”.

Values taken from patent US10466253B2, “Molecular flux rates through critical pathways measured by stable isotope labeling in vivo, as biomarkers of drug action and disease activity” (The Regents of the University of California, priority 2004, dated 2019).
